Data reported in PMC4767442 (Oncotarget, 2015).

Legend:
[1] = tested on: MCF-7 human breast adenocarcinoma cell line; assay: MTT proliferation/viability assay, MCF-7; assay type: cell-based; conditions: MCF7, 72 h/37°C, mean ± S.D.
Description: (§1) The MCF-7 human breast adenocarcinoma cell line was purchased from the European Collection of Cell Cultures (U.K.). The HL-60 human promyelocytic leukemia cell line, HCT116 human colorectal carcinoma cell line, H9c2 rat heart-derived myoblast cell line and 3T3 mouse embryo fibroblast line, were obtained from the American Type Culture Collection (VA, U.S.A.). Cells were cultured in Dulbecco's modified Eagle's medium (DMEM, Lonza, Switzerland) with or without (for MCF-7 cells only) phenol red, supplemented with 10% heat-inactivated fetal bovine serum (FBS; Lonza, Switzerland), 1% penicillin/streptomycin solution (Lonza, Switzerland) and 10 mM HEPES buffer (pH 7.0-7.6; Sigma-Aldrich, Germany). The HL-60 cell line was maintained in RPMI medium (Sigma-Aldrich, Germany) supplemented with 10% heat-inactivated FBS and 1% penicillin/streptomycin solution. All cell lines were cultured in 75 cm^2 tissue culture flasks (Switzerland) at 37°C in a humidified atmosphere of 5% CO2. Sub-confluent cells or, in the case of HL-60 cells, a cell suspension, were sub-cultured every 3-4 days.
(§2) Cells were seeded in 96-well plates for 24 h/37°C at a density of 5,000 (MCF-7), 10,000 (HL-60), 2,000 (HCT116) and 10,000 (3T3 and H9c2) cells/well. For 3T3 and H9c2 cells, the medium was changed to serum- and pyruvate-free DMEM 24 h prior to the experiments. Anti-proliferative and cytotoxicity effects of the compounds were studied at different concentrations after incubations for 72 h/37°C. Viabilities of cells were determined using MTT assays (Sigma-Aldrich, Germany) according to the manufacturer's instructions on a Tecan Infinite 200M plate reader (Tecan, Austria). The proliferation/viability of treated groups was expressed as a percentage of the untreated controls (100%).

[2] = tested on: 3T3 mouse embryo fibroblast line; assay: MTT proliferation/viability assay, 3T3; assay type: cell-based; conditions: 72 h/37°C, mean ± S.D., serum- and pyruvate-free DMEM
Description: as §1, §2

[3] = tested on: cellular labile iron pools; assay: Fluorimetric calcein-AM assay of intracellular iron chelation; assay type: cell-based; conditions: 10 μmol·L^−1
Description: Iron chelation efficiency of the compounds at a concentration of 10 μmol·L^−1 was determined via 3 methods: (1) the calcein assay; (2) the ability of the ligands to induce ^59Fe mobilization from cells prelabeled with ^59Fe-transferrin; and (3) the efficacy of these agents to inhibit the uptake of ^59Fe from ^59Fe-transferrin [22, 38–40].
The fluorimetric calcein-AM assay was performed by established methods, as described previously. The Fe chelation efficiency of the metabolites in cells was expressed as a percentage of that of the parent chelator, Dp44mT or DpC (100%). For studies assessing the ability of these agents to induce ^59Fe mobilization and inhibit ^59Fe uptake from ^59Fe-transferrin by cells, human transferrin (Sigma-Aldrich, Germany) was labeled with ^59Fe (PerkinElmer, MA, USA) to generate ^59Fe-transferrin at a final specific activity of 500 pCi/pmol Fe, as previously described. The unbound ^59Fe was removed by exhaustive vacuum dialysis against a large excess of 0.15 M NaCl buffered to pH 7.4 with 1.4% NaHCO3 by standard methods.

[4] = Post-preparative stability in the autosampler at 10°C; assay type: physicochemical; conditions: for decomposition on storage (in words): 24 h storage in the autosampler at 10°C; for Post-preparative stability: autosampler 10°C, 24 h
Description: The UHPLC-MS/MS methods for quantitative assays were validated with respect to selectivity, linearity, precision, accuracy, stability, recovery, matrix effects and dilution integrity (see […]
Supplementary Table 1-3). […]
Stability was assessed at low, medium and high concentration levels. Long -term stability was assessed for plasma samples at -80°C over a period of 7 days (three aliquots per level; Supplementary Table 3). […]

MCF-7 cells = assay: In-vitro metabolism of the drugs in MCF-7 cells (HPLC-MS); assay type: in vitro ADME, human; conditions: MCF-7, 10 μmol·L^−1, 12 h, 37°C
Description: Breast cancer cells (MCF-7) and H9c2 heart-derived myoblasts were seeded in 100-mm Petri dishes (1,000,000 cells/dish) for 24 h/37°C. Freshly prepared stock solutions of Dp44mT and DpC in DMSO (Sigma-Aldrich, Germany) were diluted in culture medium to the required working concentration.
The cells were incubated for 12 h (37°C) with either Dp44mT or DpC at a concentration of 10 μmol·L^−1. After this incubation, the cells were harvested, washed twice with ice-cold PBS buffer, centrifuged (790 x g) and precipitated with acetonitrile (200 μL/10^6 cells) prior to the analysis. The overlaying medium was also analyzed to search for possible metabolites. […] All samples were analyzed using HPLC-MS as described below in the Section: HPLC-MS method to identify metabolites of the drugs.
To search for the metabolites, plasma was precipitated with methanol or acetonitrile (plasma/solvent ratio – 1:3, v/v), treated using solid phase extraction (SPE; Discovery DSC-PH, Supelco, PA, U.S.A.), or liquid-liquid extraction with various solvents (ethyl acetate, toluene, dichloromethane). […] These samples were then analyzed using HPLC-MS with ion trap mass analyzer implementing the settings described previously with minor modifications (for details of the analyses see Supplementary Material, part 2.1). […]

[5] = design: method as in earlier work; conditions: chronically repeated dosing at high non-optimal levels (Dp44mT, mice, ref 1); DpC at markedly higher doses; cited from earlier work
[6] = high concentration level (2.105-3.115 µmol·L-1)
[7] = low concentration level (0.035-0.156 µmol·L-1)
[8] = medium concentration level (0.702-1.558 µmol·L-1)

Row | Compound | IC50 [1] | IC50 [2] | intracellular Fe chelation efficacy (in words) [3] | decomposition on storage (in words) [4] | Post-preparative stability [4, 6] | Post-preparative stability [4, 7] | Post-preparative stability [4, 8] | metabolism in cancer cells (MCF-7 cells) | cardiac fibrosis [5]
1 | CN(C(=S)NN=C(c1ccccn1)c1ccccn1)C1CCCCC1 [DpC, di(2-pyridyl)ketone 4-cyclohexyl-4-methyl-3-thiosemicarbazone] | 3 ± 1 nM | 412 ± 177 nM | comparable to Dp44mT | No significant decomposition | 107.34% | 97.48% | 95.68% | do not undergo significant metabolism | does not induce cardiac fibrosis
2 | CN(C)C(=S)NN=C(c1ccccn1)c1ccccn1 [Dp44mT, di(2-pyridyl)ketone 4,4-dimethyl-3-thiosemicarbazone] | 9 ± 2 nM | 157 ± 51 nM | high intracellular chelation efficacy | No significant decomposition | 98.90% | 93.70% | 95.92% | do not undergo significant metabolism | cardiac fibrosis was demonstrated
